# Assays:
# Mmp-9KO mice = test: Outflow facility in protein treated Mmp-9KO mouse eyes (Example 16); type: in vivo; conditions: Mmp-9KO eyes, intravitreal; p>0.05 ANOVA
# Excerpt: Animals: 8- to 12-week-old female mice were used for this study. The animals were housed and bred at the State University of New York (SUNY) Downstate Health Sciences University Division of Comparative Medicine (Brooklyn. NY) under a 12-hour light/12-hour dark cycle and food ad libitum. C57BL/6J mice were obtained from The Jackson Laboratories (Bar Harbor, ME, USA). A PlatKO mouse colony was established from animals (stock No. 002508) obtained from The Jackson Laboratories. These animals are on a C57BL/61 background (www.jax.org/strain/002508). AnMmp-9KO mouse colony was established from animals (stock No. 007084) obtained from The Jackson Laboratories. These animals are on a mixed background but have been bred into the C57BL/6J background for five generations (www.jax.org/strain/007084). […]
# Outflow facility determination: Mouse eyes were enucleated immediately after euthanasia. Outflow facility was determined using a constant pressure method, as previously described. […] Flow was constantly measured via a microfluidic flow sensor (0.07-1.5 uL/min, MFS1; Elveflow, Paris, France). […] Any eyes that developed visible leaks during outflow facility determination, or that had pressure-flow correlations with R^2<0.9, were excluded from analysis but were used for RNA quantification.
# [1] = system: Mmp-2, Mmp-9, Mmp-13 mRNA in angle ring tissues; test: Mmp expression in Tg-MYOCY437H angle ring tissues (Example 19); type: in vivo, mouse
# Method: Eyes were flash frozen in liquid nitrogen after outflow facility determination and subsequently dissected on ice to obtain the angle ring tissues containing the TM, as previously described (Kumar, Shah et al. 2013). Dissected TM tissues were immersed in RNAlater solution (Invitrogen, Waltham, MA, USA) and then snap-frozen and stored at −80° C. until RNA extraction. Tissue collected was pooled (four eyes) and homogenized in TRIzol reagent for RNA isolation, per manufacturer's instructions (Life Technologies, Carlsbad, CA, USA). RNA concentration was determined with a Nanodrop ND-1000 Spectrophotometer (Thermo Scientific, Wilmington, DE, USA). cDNA was synthesized by using High-Capacity cDNA
# Reverse Transcription Kit (Applied Biosystems, Waltham, MA, USA) according to manufacturer's protocol. Quantitative real-time PCR (qRT-PCR) was performed by using Green-2-Go qPCR Mastermix-ROX (Bio Basic, Amherst, NY, USA) on a QuantStudio 6 Flex thermal cycler (Applied Biosystems, Carlsbad, CA, USA). mRNA expression of Plat, Plait, Pai-1, Mmp-2, Mmp-9, and Mmp-13 in angle ring tissues was determined. Primers were designed by using Primer-BLAST (haps://www.ncbi.nlm.nih.gov/tools/primer-blast/index.cgi?LINK_LOC=BlastHome; in the public domain); primer sequences are listed in Table 2. Primer specificity was confirmed by agarose gel electrophoresis and multiple-sized amplification products were absent on inspection of melting curves. Target mRNA expression values were normalized to the expression levels of Rps11 (ribosomal protein S11). The relative fold change was calculated by using the ΔΔCt method (Hu, Wang et al. 2015). Outliers identified via the Thompson Tau test were removed from analysis.
# [2] = system: sheep of the Corriedale breed; test: IOP in prednisolone-treated sheep after intravitreal tPA (Example 3, Protocol 1); type: in vivo
# Method: Methods. The inventors used recombinant human tissue plasminogen activator (rtPA) ([…]; Boehringer Ingelheim SA, Buenos Aires, Argentina) in two different protocols.
# Protocol 1. 8 sheep of the Corriedale breed were treated with prednisolone acetate three times a day in both eyes, leading to elevated IOP. After one week, the animals received intravitreal injections of human recombinant tPA (100, 200, 500 and 1000 μg, two animals each) dissolved in balanced salt solution (BSS) in one eye. IOP was monitored for 19 more days while the animals continued to receive treatment with prednisolone. Periodic slit lamp examination was also performed.
# [3] = system: sheep of the Coriedale breed; test: IOP in prednisolone-treated sheep after tPA injection into the anterior chamber (Example 9); type: in vivo; conditions: 0.0001 μg into the AC; IOP 23.0 mm Hg at 6:00 and 30:00 hrs after injection
# Method: Methods. Lyophilized IPA, obtained as Acetilyse® from Boehringer Ingelheim S.A. (Buenos Aires) containing arginine. was used. Five sheep of the Coriedale breed were selected. Initially all eyes received instillation of 1% prednisolone 3 times/day for 10 days to elevate their IOP from 10 mm Hg to about 23 mm Hg. Then, 0.0001 μg was injected into one of the eyes and its effect was followed for up to 55:00 hrs while the instillation of prednisolone continued in both eyes. The same protocol was implemented for the 0.001 and 0.01 μg amounts (after extended washout) in the contra lateral eyes. Arginine, which is associated with 0.01 ug tPA, was injected alone and had no effect.
# [4] = system: Mmp-2, Mmp-9, Mmp-13 mRNA in angle ring tissues; test: Mmp expression in TA and protein treated C57BL/6J eyes (Example 13); type: in vivo, mouse; conditions: TA + protein; compared to BSA treated controls; p<0.0001
# [5] = system: Mmp-2, Mmp-9, Mmp-13 and Plat mRNA; test: Mmp and Plat expression in protein treated C57BL/6J eyes without steroids (Example 15); type: in vivo, mouse; conditions: non-steroid treated C57BL/6 eyes; group means versus BSA; p>0.05
# [6] = 2 days after intravitreal protein
substance,measurement,setting,value
"tPA: recombinant human tissue plasminogen activator (ACTILYSE; Boehringer Ingelheim), enzymatically active",effect on outflow facility,Mmp-9KO mice,did not increase outflow facility
same,Mmp-2 expression compared to BSA treated eyes,[1]; [6],no significant difference
same,Mmp-9 expression compared to BSA treated eyes,[1]; [6],not detected
same,Mmp-13 expression compared to BSA treated eyes,"[1]; 2 days after intravitreal protein, p<0.01",significantly higher
same,Mmp-9 expression compared to BSA treated eyes,[1]; 5 days treatment,higher
same,Mmp-13 expression compared to BSA treated eyes,[1]; 5 days treatment,significantly higher
same,Mmp-2 expression compared to BSA treated eyes,"[1]; 5 days treatment, p>0.05",no significant difference
same,dose dependence of the IOP effect,"[2]; 100, 200, 500 and 1000 μg, p>0.05 ANOVA",independent of the dose
same,ocular findings,"[2]; intravitreal tPA, unrelated to the dose injected",Transient injection and corneal clouding was observed in some eyes
same,mean (±SD) IOP after tPA,"[2]; within 24 h of intravitreal tPA, all doses tested (100-1000 μg), prednisolone continued, before 24.1 (±1.6)",14.1 (±1.1) mmHg
same,effect on IOP,[3],no effect
same,Mmp-2 expression,[4],significant upregulation
same,"gene expression changes in Mmp-2, Mmp-9, and Mmp-13",[5],not significantly different

# From US20240115672A1, “TREATMENT OF AN IOP CONDITION” (THE RESEARCH FOUNDATION FOR THE STATE UNIVERSITY OF NEW YORK, priority 2021, published 2024)
